We go through 22 compounds from patent US10246429B2, “Vinyl fluoride cyclopropyl fused thiazin-2-amine compounds as beta-secretase inhibitors and methods of use” (AMGEN INC., priority 2015, dated 2019).

The term IC50 denotes the concentration that inhibits the measured activity by half.

One test concerns the target BACE2 (Homo sapiens (Human), UniProt Q9Y5Z0). The test can be described thus: In vitro enzymatic BACE2 FRET assay. Format: biochemical. The following applies: read-out: IC50 IP (μM) BACE2 Enzyme.
Test [1] addresses T1, BACE1 (Homo sapiens (Human), UniProt P56817). Kind of test: BACE1 cell assay. The format is cell-based.
Target sequence in this assay (P56817 46-501, species assumed): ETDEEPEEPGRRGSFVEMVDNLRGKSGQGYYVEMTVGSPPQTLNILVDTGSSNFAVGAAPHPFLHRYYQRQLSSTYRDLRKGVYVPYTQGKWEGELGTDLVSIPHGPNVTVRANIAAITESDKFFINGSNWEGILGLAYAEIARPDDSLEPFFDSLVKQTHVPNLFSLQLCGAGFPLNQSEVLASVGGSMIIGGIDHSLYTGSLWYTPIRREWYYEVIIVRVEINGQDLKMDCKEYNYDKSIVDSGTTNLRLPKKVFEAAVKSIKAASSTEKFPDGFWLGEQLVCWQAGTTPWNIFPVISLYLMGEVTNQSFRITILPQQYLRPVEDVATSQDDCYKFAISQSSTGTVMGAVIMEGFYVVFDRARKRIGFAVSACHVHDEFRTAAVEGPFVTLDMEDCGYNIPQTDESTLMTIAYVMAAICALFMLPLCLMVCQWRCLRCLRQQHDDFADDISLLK
Test [2] concerns the target T1, BACE1. The test can be described thus: In vitro enzymatic BACE1 FRET assay. The format is biochemical. The following applies: read-out: IC50 IP (μM) BACE1 Enzyme.
Target sequence in this assay (P56817 46-501): as the sequence (P56817 46-501, species assumed) above
Excerpt: (§1) In Vitro Enzymatic BACE1 and BACE2 FRET (Fluorescence Resonance Energy Transfer) Assays (Enzyme Assay Data in Table 1)
The target in another test is Cathepsin D (CatD) (Homo sapiens (Human), UniProt P07339). Kind of test: CatD assay. The format is biochemical. The following applies: read-out: IC50 IP (μM) CatD.
Cathepsin D (CatD), sequence (P07339 65-412, species assumed): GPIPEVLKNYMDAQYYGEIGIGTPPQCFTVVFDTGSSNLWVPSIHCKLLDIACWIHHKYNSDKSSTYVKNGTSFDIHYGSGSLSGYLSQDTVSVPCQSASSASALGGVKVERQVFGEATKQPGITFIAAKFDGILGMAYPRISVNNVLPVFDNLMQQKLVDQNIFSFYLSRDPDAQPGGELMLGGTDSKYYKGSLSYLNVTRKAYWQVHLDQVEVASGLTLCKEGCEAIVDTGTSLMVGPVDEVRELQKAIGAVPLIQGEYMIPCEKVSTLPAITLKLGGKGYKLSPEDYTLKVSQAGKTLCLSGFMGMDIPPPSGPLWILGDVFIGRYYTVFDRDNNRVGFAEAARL
The mark [3] stands for this setting: read-out: IC50 IP (μM) BACE1 Cell.

BACE2, sequence (Q9Y5Z0 63-518): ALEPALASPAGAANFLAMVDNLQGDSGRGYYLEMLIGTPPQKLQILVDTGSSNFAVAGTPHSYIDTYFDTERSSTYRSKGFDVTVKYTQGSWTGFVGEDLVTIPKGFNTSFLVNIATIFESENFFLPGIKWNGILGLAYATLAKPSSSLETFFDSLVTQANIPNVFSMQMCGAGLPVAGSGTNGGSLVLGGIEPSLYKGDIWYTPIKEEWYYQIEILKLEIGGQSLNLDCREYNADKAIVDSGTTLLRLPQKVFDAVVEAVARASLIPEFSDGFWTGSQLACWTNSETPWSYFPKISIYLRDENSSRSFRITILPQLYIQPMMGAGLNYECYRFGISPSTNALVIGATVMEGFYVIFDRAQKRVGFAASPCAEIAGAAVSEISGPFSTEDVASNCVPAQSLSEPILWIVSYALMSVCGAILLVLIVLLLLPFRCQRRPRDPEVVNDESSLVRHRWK
Excerpt for BACE2: as §1

For `CC#CCOc1cnc(/C(F)=C/c2ccc(F)c([C@@]3(C)N=C(N)S[C@@]4(C(C)=O)C[C@H]43)c2)cn1` [Example 235, 1-((1S,5S,6S)-3-amino-5-(5-((Z)-2-(5-(but-2-yn-1-yloxy)pyrazin-2-yl)-2-fluorovinyl)-2-fluorophenyl)-5-methyl-2-thia-4-azabicyclo[4.1.0]hept-3-en-1-yl)ethanone], the IC50 at BACE2 is 0.247 µM; at BACE1 [1] (setting [3]), 0.0058 µM; at BACE1 [2], 0.0022 µM; on Cathepsin D (CatD), 587 µM.
For `CC(=O)[C@]12C[C@H]1[C@@](C)(c1cc(/C=C(\F)c3cnc(OCC(F)(F)F)cn3)ccc1F)N=C(N)S2` [Example 236, 1-((1S,5S,6S)-3-amino-5-(2-fluoro-5-((Z)-2-fluoro-2-(5-(2,2,2-trifluoroethoxy)pyrazin-2-yl)vinyl)phenyl)-5-methyl-2-thia-4-azabicyclo[4.1.0]hept-3-en-1-yl)ethanone], the IC50 at BACE2 turned out to be 1.28 µM; on BACE1 [1] (setting [3]) it was 0.284 µM; at BACE1 [2], 0.118 µM; on Cathepsin D (CatD), 400 µM.
As for `CC(=O)[C@]12C[C@H]1[C@@](C)(c1cc(/C=C(\F)c3ccc(C#N)cn3)ccc1F)N=C(N)S2` [Example 238, 6-((Z)-2-(3-((1S,5S,6S)-1-acetyl-3-amino-5-methyl-2-thia-4-azabicyclo[4.1.0]hept-3-en-5-yl)-4-fluorophenyl)-1-fluorovinyl)nicotinonitrile], the IC50 came out at 0.245 µM at BACE2, 0.0066 µM at BACE1 [1], 0.0121 µM at BACE1 [2] and 892 µM on Cathepsin D (CatD).
For `C#CCOc1cnc(/C(F)=C/c2ccc(F)c([C@@]3(C)N=C(N)S[C@@]4(C#N)C[C@H]43)c2)cn1` [Example 240, (1S,5S,6S)-3-amino-5-(2-fluoro-5-((Z)-2-fluoro-2-(5-(prop-2-yn-1-yloxy)pyrazin-2-yl)vinyl)phenyl)-5-methyl-2-thia-4-azabicyclo[4.1.0]hept-3-ene-1-carbonitrile], the IC50 at BACE2 was 0.081 µM; on BACE1 [1] (setting [3]) it was 0.0175 µM; at BACE1 [2] it was 0.0012 µM; at Cathepsin D (CatD) it was 124 µM.
As to `C[C@]1(c2cc(/C=C(\F)c3ccc(Cl)cn3)ccc2F)N=C(N)S[C@@]2(C(N)=O)C[C@H]21` [Example 242, (1S,5S,6S)-3-amino-5-(5-((Z)-2-(5-chloropyridin-2-yl)-2-fluorovinyl)-2-fluorophenyl)-5-methyl-2-thia-4-azabicyclo[4.1.0]hept-3-ene-1-carboxamide], the IC50 at BACE2 was 0.034 µM; at BACE1 [1], 0.0181 µM; on BACE1 [2], 0.0164 µM; on Cathepsin D (CatD), 205 µM.
Take `C[C@]1(c2cc(/C=C(\F)c3ccc(C#N)cn3)ccc2F)N=C(N)S[C@@]2(C(N)=O)C[C@H]21` [Example 243, (1S,5S,6S)-3-amino-5-(5-((Z)-2-(5-cyanopyridin-2-yl)-2-fluorovinyl)-2-fluorophenyl)-5-methyl-2-thia-4-azabicyclo[4.1.0]hept-3-ene-1-carboxamide]: the IC50 is 0.043 µM at BACE2, 0.0022 µM on BACE1 [1], 0.003 µM at BACE1 [2] and 412 µM on Cathepsin D (CatD).
Take `CC#CCOc1cnc(/C(F)=C/c2ccc(F)c([C@@]3(C)N=C(N)S[C@@]4(C#N)C[C@H]43)c2)cn1` [Example 244, (1S,5S,6S)-3-amino-5-(5-((Z)-2-(5-(but-2-yn-1-yloxy)pyrazin-2-yl)-2-fluorovinyl)-2-fluorophenyl)-5-methyl-2-thia-4-azabicyclo[4.1.0]hept-3-ene-1-carbonitrile]: the IC50 was determined as 0.055 µM on BACE2, 0.0147 µM on BACE1 [1] (setting [3]), 0.0004 µM at BACE1 [2] and 150 µM at Cathepsin D (CatD).
For `C[C@]1(c2cc(/C=C(\F)c3ccc(C#N)cn3)ccc2F)N=C(N)S[C@@]2(C#N)C[C@H]21` [Example 245, (1S,5S,6S)-3-amino-5-(5-((Z)-2-(5-cyanopyridin-2-yl)-2-fluorovinyl)-2-fluorophenyl)-5-methyl-2-thia-4-azabicyclo[4.1.0]hept-3-ene-1-carbonitrile], the IC50 was found to be 0.057 µM at BACE2, 0.0341 µM on BACE1 [1] (setting [3]), 0.005 µM at BACE1 [2] and 400 µM on Cathepsin D (CatD).
For `CN(C)C(=O)[C@]12C[C@H]1[C@@](C)(c1cc(/C=C(\F)c3cn4cc(C#N)ccc4n3)ccc1F)N=C(N)S2` [Example 246, (1S,5S,6S)-3-amino-5-(5-((Z)-2-(6-cyanoimidazo[1,2-a]pyridin-2-yl)-2-fluorovinyl)-2-fluorophenyl)-N,N,5-trimethyl-2-thia-4-azabicyclo[4.1.0]hept-3-ene-1-carboxamide], the IC50 on BACE2 came out at 0.39 µM; at BACE1 [1] (setting [3]) it was 0.05 µM; on BACE1 [2], 0.171 µM; on Cathepsin D (CatD), 53.1 µM.
As to `COC(=O)[C@]12C[C@H]1[C@@](C)(c1cc(/C=C(\F)c3ccc(Cl)cn3)cc(F)c1F)N=C(N)S2` [Example 248, (1S,5S,6S)-methyl 3-amino-5-(5-((Z)-2-(5-chloropyridin-2-yl)-2-fluorovinyl)-2,3-difluorophenyl)-5-methyl-2-thia-4-azabicyclo[4.1.0]hept-3-ene-1-carboxylate], the IC50 at BACE2 came to 0.083 µM; on BACE1 [1], 1.59 µM; on BACE1 [2], 0.0625 µM; on Cathepsin D (CatD) it was 200 µM.
`CN(C)C(=O)[C@]12C[C@H]1[C@@](C)(c1cc(/C=C(\F)c3ncc4c(n3)OCCO4)ccc1F)N=C(N)S2` [Example 250, (1S,5S,6S)-3-amino-5-(5-((Z)-2-(6,7-dihydro-[1,4]dioxino[2,3-d]pyrimidin-2-yl)-2-fluorovinyl)-2-fluorophenyl)-N,N,5-trimethyl-2-thia-4-azabicyclo[4.1.0]hept-3-ene-1-carboxamide]: the IC50 was 0.076 µM at BACE2, 0.017 µM at BACE1 [1] (setting [3]), 0.029 µM at BACE1 [2] and 368 µM at Cathepsin D (CatD).
For `C[C@]1(c2cc(/C=C(\F)c3ccc(C#N)cn3)ccc2F)N=C(N)S[C@]2(CO)[C@H]1C2(F)F` [Example 251, 6-((Z)-2-(3-((1S,5S,6R)-3-amino-7,7-difluoro-1-(hydroxymethyl)-5-methyl-2-thia-4-azabicyclo[4.1.0]hept-3-en-5-yl)-4-fluorophenyl)-1-fluorovinyl)nicotinonitrile], the IC50 is 0.159 µM on BACE2, 0.062 µM at BACE1 [1] (setting [3]), 0.012 µM at BACE1 [2] and 360 µM at Cathepsin D (CatD).
Take `C#CCOc1cnc(/C(F)=C/c2ccc(F)c([C@@]3(C)N=C(N)S[C@]4(CO)[C@H]3C4(F)F)c2)cn1` [Example 253, ((1S,5S,6R)-3-amino-7,7-difluoro-5-(2-fluoro-5-((Z)-2-fluoro-2-(5-(prop-2-yn-1-yloxy)pyrazin-2-yl)vinyl)phenyl)-5-methyl-2-thia-4-azabicyclo[4.1.0]hept-3-en-1-yl)methanol]: the IC50 at BACE2 came to 0.385 µM; on BACE1 [1] (setting [3]), 0.0636 µM; at BACE1 [2], 0.0054 µM; on Cathepsin D (CatD), 147 µM.
With `C[C@]1(c2cc(/C=C(\F)c3ccc(Cl)cn3)ccc2F)N=C(N)S[C@]2(CO)[C@H]1C2(F)F` [Example 255, ((1S,5S,6R)-3-amino-5-(5-((Z)-2-(5-chloropyridin-2-yl)-2-fluorovinyl)-2-fluorophenyl)-7,7-difluoro-5-methyl-2-thia-4-azabicyclo[4.1.0]hept-3-en-1-yl)methanol], the IC50 on BACE2 amounted to 0.056 µM; on BACE1 [1], 0.505 µM; at BACE1 [2], 0.0477 µM; on Cathepsin D (CatD) it was 235 µM.
As to `C#C[C@H](C)Oc1cnc(/C(F)=C/c2ccc(F)c([C@@]3(C)N=C(N)S[C@@]4(COC)C[C@H]43)c2)cn1` [Example 264], the IC50 is 0.917 µM at BACE2, 0.026 µM on BACE1 [1] (setting [3]), 0.003 µM at BACE1 [2] and 363 µM on Cathepsin D (CatD).
As to `COC[C@]12C[C@H]1[C@@](C)(c1cc(/C=C(\F)c3cnc(OCC(F)F)cn3)ccc1F)N=C(N)S2` [Example 266], the IC50 on BACE2 turned out to be 1.58 µM; at BACE1 [1] (setting [3]) it was 1.51 µM; at BACE1 [2] it was 0.591 µM; on Cathepsin D (CatD), 409 µM.
In the case of `COC[C@]12C[C@H]1[C@@](C)(c1cc(/C=C(\F)c3cnc(OCC(F)(F)F)cn3)ccc1F)N=C(N)S2` [Example 267], the IC50 was found to be 1.73 µM at BACE2, 0.559 µM on BACE1 [1] (setting [3]), 0.112 µM at BACE1 [2] and 209 µM on Cathepsin D (CatD).
Turning to `COC[C@]12C[C@H]1[C@@](C)(c1cc(/C=C(\F)c3cnc(OCCF)cn3)ccc1F)N=C(N)S2` [Example 269], the IC50 was determined as 1.14 µM on BACE2, 1.66 µM on BACE1 [1] (setting [3]), 0.839 µM on BACE1 [2] and 329 µM at Cathepsin D (CatD).
With `COC[C@]12C[C@H]1[C@@](C)(c1cc(/C=C(\F)c3cnc(OCC4CC4)cn3)ccc1F)N=C(N)S2` [Example 270], the IC50 on BACE2 was determined as 1.22 µM; on BACE1 [1] (setting [3]), 5.12 µM; at BACE1 [2], 0.659 µM; at Cathepsin D (CatD), 211 µM.
As for `COC[C@]12C[C@H]1[C@@](C)(c1cc(/C=C(\F)c3cnc(OCC4COC4)cn3)ccc1F)N=C(N)S2` [Example 272], the IC50 on BACE2 is 4.02 µM; at BACE1 [1] (setting [3]), 2.53 µM; on BACE1 [2] it was 3.04 µM; at Cathepsin D (CatD), 864 µM.
Consider `COC[C@]12C[C@H]1[C@@](C)(c1cc(/C=C(\F)c3cnc(OCC(C)C)cn3)ccc1F)N=C(N)S2` [Example 274], for which the IC50 on BACE2 was 2.19 µM; at BACE1 [1] (setting [3]) it was 4.26 µM; on BACE1 [2] it was 1.9 µM; at Cathepsin D (CatD), 181 µM.
`COC[C@]12C[C@H]1[C@@](C)(c1cc(/C=C(\F)c3cnc(OCc4cc(C)on4)cn3)ccc1F)N=C(N)S2` [Example 275]: the IC50 amounted to 1.2 µM at BACE2, 2 µM at BACE1 [1] (setting [3]), 0.248 µM at BACE1 [2] and 144 µM at Cathepsin D (CatD).
